Where two headings read alike, the source gives them in different places.
Columns and labels:
[1] = Solubility in water (description); format: physicochemical; details: ABOA, white to off-white solid
[2] = product insert (Zytiga Full Prescribing Information, Section 11); cited from earlier work
[3] = cited from earlier work
[4] = target: CYP3A4 liver enzyme (Homo sapiens, UniProt P08684); details: Zytiga Full Prescribing Information, Section 7.2; cited from earlier work
Chain of CYP3A4 liver enzyme (P08684 whole entry): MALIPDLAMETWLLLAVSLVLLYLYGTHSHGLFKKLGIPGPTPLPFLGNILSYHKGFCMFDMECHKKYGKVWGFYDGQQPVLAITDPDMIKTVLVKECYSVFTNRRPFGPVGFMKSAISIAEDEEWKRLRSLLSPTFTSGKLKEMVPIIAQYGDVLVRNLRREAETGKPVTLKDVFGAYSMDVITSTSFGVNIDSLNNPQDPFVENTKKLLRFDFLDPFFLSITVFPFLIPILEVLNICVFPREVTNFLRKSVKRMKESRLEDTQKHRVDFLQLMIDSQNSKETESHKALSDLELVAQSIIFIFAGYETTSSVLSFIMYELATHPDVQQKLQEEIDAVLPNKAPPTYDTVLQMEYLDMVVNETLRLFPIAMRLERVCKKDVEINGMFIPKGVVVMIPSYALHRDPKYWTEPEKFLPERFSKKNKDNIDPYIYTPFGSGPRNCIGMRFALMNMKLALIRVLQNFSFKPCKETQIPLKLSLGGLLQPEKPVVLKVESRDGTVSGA

## C[C@]12CC[C@H](OC(=O)C(=O)O)CC1=CC[C@@H]1[C@@H]2CC[C@]2(C)C(c3cccnc3)=CC[C@@H]12 [ABOA, 2-(((3S,8R,9S,10R,13S,14S)-10,13-dimethyl-17-(pyridin-3-yl)-2,3,4,7,8,9,10,11,12,13,14,15-dodecahydro-1H-cyclopenta[a]phenanthren-3-yl)oxy)-2-oxoacetic acid]
[1]
  solubility in water: practically insoluble in water

## CC(=O)O[C@H]1CC[C@@]2(C)C(=CC[C@@H]3[C@@H]2CC[C@]2(C)C(c4cccnc4)=CC[C@@H]32)C1 [abiraterone acetate]
[2]
  solubility in water: practically insoluble in water
[3]; depending on fat content of the meal
  food-effect: five- to ten-fold
[3]; oral, low bioavailability from poor absorption
  administered drug excreted: 77%
[4]
  CYP3A4 substrate: substrate of the CYP3A4 liver enzyme

Source: US10717762B2, “Abiraterone derivative and formulations thereof” (Zhuhai Beihai Biotech Co., Ltd., priority 2016, dated 2020)
